Results reported in patent publication US5541175A, “Cephalosporin antibiotics” (Lucky, Ltd., priority 1993, dated 1996).
In brackets after ≈: the same amount, converted by molar mass. Read-outs that look alike come from different tables or passages of the source.

Legend:
Escherichia coli 851E = experiment: Minimum inhibitory concentration (agar 2-fold dilution); type: cell-based; conditions: E. coli 851E, Muller-Hinton agar, 37° C., 20 hours
Protocol: (§1) The minimum inhibitory concentration was determined by diluting the test compounds according to 2-fold dilution, suspending them in Muller-Hinton agar medium, inoculating 2 μl of the suspension containing the test strains having 10^7 CFU (Colony Forming Unit) per 1 ml into the medium and then culturing the test strains at 37° C. for 20 hours.

[1] = test system: Escherichia coli TEM9 2639E; experiment: as above; type: cell-based; conditions: TEM92639E, 20 h, read-out: Minimum Inhibitory Concentration
Protocol: as §1

Escherichia coli 10536 = experiment: as above; type: cell-based; conditions: Escherichia coli; E. coli 10536; Muller-Hinton agar, 37° C., 20 hours; read-out: Minimum Inhibitory Concentration
Protocol: as §1

[2] = test system: Escherichia coli TEM5 3739E; experiment: as above; type: cell-based; conditions: TEM53739E, 20 h, read-out: Minimum Inhibitory Concentration
Protocol: as §1

Staphylococcus aureus 77 = experiment: as above; type: cell-based; conditions: read-out: Minimum Inhibitory Concentration
Protocol: as §1

[3] = test system: Staphylococcus aureus 6538P; experiment: as above; type: cell-based; conditions: read-out: Minimum Inhibitory Concentration
Protocol: as §1

[4] = test system: Pseudomonas aeruginosa 1912E; experiment: as above; type: cell-based; conditions: P. aeruginosa 1912E, Muller-Hinton agar, 37° C., 20 hours, read-out: Minimum Inhibitory Concentration
Protocol: as §1

[5] = test system: Escherichia coli TEM7 3457E; experiment: as above; type: cell-based; conditions: TEM73457E, 20 h, read-out: Minimum Inhibitory Concentration
Protocol: as §1

[6] = test system: Escherichia coli TEM3 3455E; experiment: as above; type: cell-based; conditions: TEM33455E, 20 h, read-out: Minimum Inhibitory Concentration
Protocol: as §1

[7] = test system: Escherichia coli TEM1 1193E; experiment: as above; type: cell-based; conditions: TEM11193E, 20 h, read-out: Minimum Inhibitory Concentration
Protocol: as §1

[8] = test system: Streptococcus faecalis 29212A; experiment: as above; type: cell-based; conditions: Enterococcus faecalis; S. faecalis 29212A; Muller-Hinton agar, 37° C., 20 hours; read-out: Minimum Inhibitory Concentration
Protocol: as §1

[9] = test system: Staphylococcus aureus giorgio; experiment: as above; type: cell-based; conditions: S. aureus giorgio, Muller-Hinton agar, 37° C., 20 hours, read-out: Minimum Inhibitory Concentration
Protocol: as §1

[10] = test system: Pseudomonas aeruginosa 6065; experiment: as above; type: cell-based; conditions: Pseudomonas aeruginosa; P. aeruginosa 6065; Muller-Hinton agar, 37° C., 20 hours; read-out: Minimum Inhibitory Concentration
Protocol: as §1

[11] = test system: Acinetobacter calcoaceticus 15473A; experiment: as above; type: cell-based; conditions: A. calcoaceticus 15473A, Muller-Hinton agar, 37° C., 20 hours, read-out: Minimum Inhibitory Concentration
Protocol: as §1

Enterobacter cloacae P99 = experiment: as above; type: cell-based; conditions: P99, 20 h, read-out: Minimum Inhibitory Concentration
Protocol: as §1

[12] = test system: Salmonella typhimurium 14028A; experiment: as above; type: cell-based; conditions: Salmonella enterica; S. typhimurium 14028A; Muller-Hinton agar, 37° C., 20 hours; read-out: Minimum Inhibitory Concentration
Protocol: as §1

[13] = test system: Klebsiella aerogenes K1 + 1082E; experiment: as above; type: cell-based; conditions: 20 h, read-out: Minimum Inhibitory Concentration
Protocol: as §1

[14] = test system: Serratia marcescens 1826E; experiment: as above; type: cell-based; conditions: S. marcescens 1826E, Muller-Hinton agar, 37° C., 20 hours, read-out: Minimum Inhibitory Concentration
Protocol: as §1

[15] = test system: Citrobacter diversus 2046E; experiment: as above; type: cell-based; conditions: Citrobacter koseri; C. diversus 2046E; Muller-Hinton agar, 37° C., 20 hours; read-out: Minimum Inhibitory Concentration
Protocol: as §1

Escherichia coli 3190Y = experiment: as above; type: cell-based; conditions: E. coli 3190Y, Muller-Hinton agar, 37° C., 20 hours, read-out: Minimum Inhibitory Concentration
Protocol: as §1

[16] = test system: Staphylococcus aureus epidermidis 887E; experiment: as above; type: cell-based; conditions: S. aureus epidermidis 887E, Muller-Hinton agar, 37° C., 20 hours, read-out: Minimum Inhibitory Concentration
Protocol: as §1

[17] = test system: Enterobacter cloacae IND + VE 1194E; experiment: as above; type: cell-based; conditions: E. cloacae IND + VE 1194E, Muller-Hinton agar, 37° C., 20 hours, read-out: Minimum Inhibitory Concentration
Protocol: as §1

Proteus vulgaris 6059A = experiment: as above; type: cell-based; conditions: P. vulgaris 6059A, Muller-Hinton agar, 37° C., 20 hours, read-out: Minimum Inhibitory Concentration
Protocol: as §1

[18] = test system: Klebsiella aerogenes SHV-1 1976E; experiment: as above; type: cell-based; conditions: SHV11976E, K. aerogenes SHV-1 1976E, Muller-Hinton agar, 37° C., 20 hours
Protocol: as §1

[19] = test system: Pseudomonas aeruginosa 10145; experiment: as above; type: cell-based; conditions: Pseudomonas aeruginosa; P. aeruginosa 10145; Muller-Hinton agar, 37° C., 20 hours; read-out: Minimum Inhibitory Concentration
Protocol: as §1

[20] = test system: Staphylococcus aureus 241; experiment: as above; type: cell-based; conditions: Staphylococcus aureus; S. aureus 241; Muller-Hinton agar, 37° C., 20 hours; read-out: Minimum Inhibitory Concentration
Protocol: as §1

[21] = Pharmacokinetic properties in rats (blood concentration by agar well biological assay); set-up: species or system SD rats (male); conditions: rat, in vivo, iv, 20 mg/kg
Protocol: The pharmacokinetic properties of the compound of the present invention were determined using SD rats (.male.) weighing 230±10 g. Specifically,the test samples were injected into femoral vein in an amount of 20 mg/kg to 4 to 5 test animals. Blood was taken from femoral vein 1, 2.5, 5, 10, 20, 40, 60, 120 and 180 minutes after administration and then subjected to a biological assay using agar well method to measure the blood concentration.

[22] = Staphylococcus aureus, S. aureus 77, Muller-Hinton agar, 37° C., 20 hours

Structure (SMILES): Nc1nc(/C(=N/O[C@H](C(=O)O)c2ccc(O)c(O)c2)C(=O)N[C@@H]2C(=O)N3C(C(=O)[O-])=C(/C=C/C[n+]4cnc(N)c5c4CCC5)CS[C@H]23)cs1 [Compound I-3a, 7-[(Z)-2-(2-aminothiazol-4-yl)-2-(α-carboxy-3,4-dihydroxybenzyloxyimino)acetamido]-3-[(E)-3-(4-amino-5,6-cyclopentanopyrimidinium-1-yl)-1-propen-1-yl]-3-cephem-4-carboxylate]
- MIC (Escherichia coli 851E): 0.031 µg/mL (≈ 0.0437 µM)
- MIC [1]: 2 µg/mL (≈ 2.82 µM)
- MIC (Escherichia coli 10536): 0.008 µg/mL (≈ 0.0113 µM)
- MIC [2]: 0.5 µg/mL (≈ 0.705 µM)
- MIC (Staphylococcus aureus 77; [22]): 4 µg/mL (≈ 5.64 µM)
- MIC ([3]; 6538P, 20 h): 1 µg/mL (≈ 1.41 µM)
- MIC [4]: 0.5 µg/mL (≈ 0.705 µM)
- MIC [5]: 0.13 µg/mL (≈ 0.183 µM)
- MIC [6]: 0.063 µg/mL (≈ 0.0889 µM)
- MIC [7]: 0.063 µg/mL (≈ 0.0889 µM)
- MIC [8]: 4 µg/mL (≈ 5.64 µM)
- MIC [9]: 1 µg/mL (≈ 1.41 µM)
- MIC [10]: 1 µg/mL (≈ 1.41 µM)
- MIC [11]: 0.5 µg/mL (≈ 0.705 µM)
- MIC (Enterobacter cloacae P99): 16 µg/mL (≈ 22.6 µM)
- MIC [12]: 0.031 µg/mL (≈ 0.0437 µM)
- MIC [13]: 0.063 µg/mL (≈ 0.0889 µM)
- MIC [14]: 0.5 µg/mL (≈ 0.705 µM)
- MIC [15]: 0.063 µg/mL (≈ 0.0889 µM)
- MIC (Escherichia coli 3190Y): 0.031 µg/mL (≈ 0.0437 µM)
- MIC [16]: 64 µg/mL (≈ 90.3 µM)
- MIC [17]: 2 µg/mL
- MIC (Proteus vulgaris 6059A): 0.13 µg/mL (≈ 0.183 µM)
- MIC [18]: 0.13 µg/mL (≈ 0.183 µM)
- MIC [19]: 0.5 µg/mL (≈ 0.705 µM)
- MIC [20]: > 128 µg/mL
- AUC [21]: 36600 ng·h/mL
- half-life [21]: 33 min

Structure (SMILES): Cc1c(N)nc[n+](C/C=C/C2=C(C(=O)[O-])N3C(=O)[C@@H](NC(=O)/C(=N\O[C@H](C(=O)O)c4ccc(O)c(O)c4)c4csc(N)n4)[C@H]3SC2)c1N [Compound I-4a, 7-[(Z)-2-(2-aminothiazol-4-yl)-2-(α-carboxy-3,4-dihydroxybenzyloxyimino)acetamido]-3-[(E)-3-(4,6-diamino-5-methylpyrimidinium-1-yl)-1-propen-1-yl]-3-cephem-4-carboxylate]
- MIC (Escherichia coli 851E): 0.063 µg/mL (≈ 0.0903 µM)
- MIC [1]: 2 µg/mL (≈ 2.87 µM)
- MIC (Escherichia coli 10536): 0.008 µg/mL (≈ 0.0115 µM)
- MIC [2]: 2 µg/mL (≈ 2.87 µM)
- MIC (Staphylococcus aureus 77; [22]): 2 µg/mL (≈ 2.87 µM)
- MIC ([3]; S. aureus 6538P, Muller-Hinton agar, 37° C., 20 hours): 0.5 µg/mL (≈ 0.717 µM)
- MIC [4]: 4 µg/mL (≈ 5.73 µM)
- MIC [5]: 0.25 µg/mL (≈ 0.358 µM)
- MIC [6]: 0.25 µg/mL (≈ 0.358 µM)
- MIC [7]: 0.063 µg/mL (≈ 0.0903 µM)
- MIC [8]: 4 µg/mL (≈ 5.73 µM)
- MIC [9]: 0.25 µg/mL (≈ 0.358 µM)
- MIC [10]: 1 µg/mL (≈ 1.43 µM)
- MIC [11]: 0.5 µg/mL (≈ 0.717 µM)
- MIC (Enterobacter cloacae P99): 8 µg/mL (≈ 11.5 µM)
- MIC [12]: 0.016 µg/mL (≈ 0.0229 µM)
- MIC [13]: 0.063 µg/mL (≈ 0.0903 µM)
- MIC [14]: 0.25 µg/mL (≈ 0.358 µM)
- MIC [15]: 0.13 µg/mL (≈ 0.186 µM)
- MIC (Escherichia coli 3190Y): 0.063 µg/mL (≈ 0.0903 µM)
- MIC [16]: 16 µg/mL (≈ 22.9 µM)
- MIC [17]: 2 µg/mL
- MIC (Proteus vulgaris 6059A): 0.063 µg/mL (≈ 0.0903 µM)
- MIC [18]: 0.13 µg/mL (≈ 0.186 µM)
- MIC [19]: 0.5 µg/mL (≈ 0.717 µM)
- MIC [20]: 64 µg/mL (≈ 91.7 µM)
- AUC [21]: 53100 ng·h/mL
- half-life [21]: 53 min

Structure (SMILES): Nc1nc(/C(=N/O[C@@H](C(=O)O)c2ccc(O)c(O)c2)C(=O)N[C@@H]2C(=O)N3C(C(=O)[O-])=C(/C=C/C[n+]4cnc(N)c(N)c4N)CS[C@H]23)cs1 [Compound I-5b, 7-[(Z)-2-(2-aminothiazol-4-yl)-2-(α-carboxy-3,4-dihydroxybenzyloxyimino)acetamido]-3-[(E)-3-(4,5,6-triaminopyrimidinium-1-yl)-1-propen-1-yl]-3-cephem-4-carboxylate]
- MIC (Escherichia coli 851E): 0.13 µg/mL (≈ 0.186 µM)
- MIC [1]: 1 µg/mL (≈ 1.43 µM)
- MIC (Escherichia coli 10536): 0.13 µg/mL (≈ 0.186 µM)
- MIC [2]: 1 µg/mL (≈ 1.43 µM)
- MIC (Staphylococcus aureus 77; Staphylococcus aureus, 77, 20 h): 2 µg/mL (≈ 2.86 µM)
- MIC ([3]; 6538P, 20 h): 0.5 µg/mL (≈ 0.716 µM)
- MIC [4]: 1 µg/mL (≈ 1.43 µM)
- MIC [5]: 0.25 µg/mL (≈ 0.358 µM)
- MIC [6]: 0.063 µg/mL (≈ 0.0902 µM)
- MIC [7]: 0.25 µg/mL (≈ 0.358 µM)
- MIC [8]: 8 µg/mL (≈ 11.4 µM)
- MIC [9]: 0.5 µg/mL (≈ 0.716 µM)
- MIC [10]: 8 µg/mL (≈ 11.4 µM)
- MIC [11]: 1 µg/mL (≈ 1.43 µM)
- MIC (Enterobacter cloacae P99): 16 µg/mL (≈ 22.9 µM)
- MIC [12]: 0.031 µg/mL (≈ 0.0444 µM)
- MIC [13]: 1 µg/mL (≈ 1.43 µM)
- MIC [14]: 2 µg/mL (≈ 2.86 µM)
- MIC [15]: 4 µg/mL (≈ 5.72 µM)
- MIC (Escherichia coli 3190Y): 0.13 µg/mL (≈ 0.186 µM)
- MIC [16]: 64 µg/mL (≈ 91.6 µM)
- MIC [17]: 8 µg/mL
- MIC (Proteus vulgaris 6059A): 1 µg/mL (≈ 1.43 µM)
- MIC [18]: 1 µg/mL (≈ 1.43 µM)
- MIC [19]: 2 µg/mL (≈ 2.86 µM)
- MIC [20]: 128 µg/mL (≈ 183 µM)
